Measured values as given in patent US8338420B1, “Treatment of Parkinson's disease and enhancement of dopamine signal using PDE 10 inhibitor” (Mitsubishi Tanabe Pharma Corporation, priority 2002, dated 2012).

How the values were obtained:
PDE5 = molecular target: T1, PDE5 (Canis lupus familiaris, UniProt O77746); assay: PDE assay, PDE5 enzyme solution from canine lung; type: biochemical; conditions: substrate about 12 nM [3H]-cGMP and 1 μM cGMP
T1 construct: These were used as a PDE5 enzyme solution for PDE assay; tissue Oriental Yeast (animals); host or cells: canine lung, soluble fraction, DEAE Sepharose fractions
Method: In the same manner as in (1-4) above, the supernatant obtained from the homogenate of canine lung tissue was applied to chromatography under FLPC system, to collect eluted fractions of 2 ml each.
Subsequently, the eluted fractions were used as an enzyme solution for PDE assay, and cGMP-hydrolyzing activity was measured for respective fractions, in the presence or absence of E4021, the PDE5 specific inhibitor.
Further, for examining contamination of PDE1, which is adjacently eluted, cGMP-hydrolyzing PDE activity of the respective fractions were measured in the same assay buffer containing EGTA (final concentration of 1 mM) [or calcium chloride (final concentration of 2 mM) and calmodulin (40 units/ml)].
These fractions were collected and glycerol was added thereto to become 50%, and the mixture was stored at −20° C. These were used as a PDE5 enzyme solution for PDE assay.

[1] = system: rat 6-hydroxydopamine model; assay: Rat 6-hydroxydopamine model, L-dopa induced rotational behaviors; type: in vivo, SD rat; conditions: 1 mg/kg, i.v.; L-dopa 10 mg/kg i.p. + benserazide 2.5 mg/kg i.p.
Method: Preparation of rat 6-hydroxydopamine model According to the method described in the literature (Koga et al., European Journal of Pharmacology, vol. 408, pp. 249-255, 2000), 6-hydroxydopamine (6-OHDA) was administered in the rat's brain, to cause lesion in the substantia nigra of the brain, to thereby cause motor disability. As the rats, male SD (Sprague Dawley) rats (about 9 to 10 week old) were used. To these rats was administered desipramine (available from Sigma) (25 mg/kg, i.p.). Desipramine was used after being dissolved in distilled water to be 25 mg/ml. […]
One week after administration of 6-OHDA, apomorphine was administered, and rotational behaviors were confirmed to appear due to the lesion of substantia nigra by 6-OHDA in one hemisphere. […] Turnings were counted in every 5-minute interval, until rotational behaviors disappeared or until an event was repeated twice in which the number of turnings became 5 or less during the 5-minute interval. […]
To the model rat prepared in the above (1) (2 weeks after administration of apomorphine), L-dopa and benserazide (dopa decarboxylase inhibitor which inhibits degradation of L-dopa) were administered, and numbers of tunings were measured. […]
L-dopa was administered 30 minutes after benserazide administration, and turnings were counted after L-dopa administration. […]

[2] = Brain uptake (integration plot method, PS) and PDE10 binding occupancy in the brain; type: in vivo; conditions: rat, 1 mg/kg, i.v.
Text: Different from other tissue, the brain has the blood brain barrier (BBB) to restrict and regulate the movement of molecules between the blood and the brain. BBB consists of brain capillary endothelial cells. The brain capillary endothelial cells are connected through tight junction, and nutrients and drugs in the blood are required to pass transcellularly through the brain capillary endothelial cells. As a mechanism for the drugs to pass through the BBB, there are mentioned the following five routes; 1) passive diffusion, 2) carrier-mediated transport, 3) receptor-mediated transcytosis, 4) absorptive-mediated transcytosis and 5) active efflux transport by P-glycoprotein. The rate of the compound to pass through the BBB and enter the brain (PS) via one or plurals of these mechanisms can be measured by known in vivo experimental assays such as in situ brain perfusion, integration plot method, etc., or by the known in vitro experimental assays such as primary cultured brain capillary endothelial cells, or an established immortalized brain capillary endothelial cell line, etc. […]
Further, Compound A (1 mg/kg, i.v.) was intravenously administered to rat, and according to integration plot method, a rate (PS) was measured for Compound A to enter the brain by passing through the blood brain barrier (BBB), and occupancy of PDE10 binding in the brain was analyzed.

PDE4 = assay: PDE assay, PDE4 enzyme solution from dog lung; type: biochemical, mixed-breed dog; conditions: substrate about 4.8 nM [3H]-cAMP and 1 μM cAMP
Method: These fractions were collected and glycerol was added thereto to become 50%, and the mixture was stored at −20° C.

IC50 (PDE5): > 1000 nM
IC50 (PDE4): 160 nM
SMILES: COc1ccc(-c2cc(N3CCCC3)nc(/C=C/c3nc(-n4ccnc4)c4ccccc4n3)n2)cc1OC [Compound A, 2-{(E)-2-[4-(1-imidazolyl)-quinazolin-2-yl]}ethenyl-4-(3,4-dimethoxy)phenyl-6-(pyrrolidin-1-yl)pyrimidine]
L-dopa induced rotational behaviors, total number of turnings [1]: tended to increase
duration of L-dopa induced rotational behaviors [1]: significantly prolonged
occupancy of PDE10 binding in the brain [2]: excellent PDE10 binding behaviors inside the brain
brain uptake and penetration (rate PS through the BBB) ([2]; integration plot method): good brain uptake and penetration characteristics
